Assay results from BindingDB's records for doi:10.1021/jm980217s (Abbott Laboratories, 1998).

Assay: Binding affinity for endothelin B receptor by measuring its ability to displace [125I]-ET-3 from porcine cerebellar tissue

IC50 | SMILES
60 µM | C=CCCC[C@H]1[C@H](C(=O)O)[C@@H](c2ccc3c(c2)OCO3)CN1CC(=O)N(CCCC)CCCC [(2S,3R,4S)-4-Benzo[1,3]dioxol-5-yl-1-dibutylcarbamoylmethyl-2-pent-4-enyl-pyrrolidine-3-carboxylic acid]
47 µM | CCCCC[C@H]1[C@H](C(=O)O)[C@@H](c2ccc3c(c2)OCO3)CN1CC(=O)N(CCCC)CCCC [(2S,3R,4S)-4-Benzo[1,3]dioxol-5-yl-1-dibutylcarbamoylmethyl-2-pentyl-pyrrolidine-3-carboxylic acid]
10 µM | CCCCN(CCCC)C(=O)CN1C[C@H](c2ccc3c(c2)OCO3)[C@@H](C(=O)O)[C@@H]1CCC=C1CC1 [(2S,3R,4S)-4-Benzo[1,3]dioxol-5-yl-2-(3-cyclopropylidene-propyl)-1-dibutylcarbamoylmethyl-pyrrolidine-3-carboxylic acid]
